Source: ChEMBL document CHEMBL1136213, “2,6-disubstituted pyran-4-one and thiopyran-4-one inhibitors of DNA-Dependent protein kinase (DNA-PK)” (Bioorg Med Chem Lett, 2003)

Legend:
[1] = target: T1, DNA-dependent protein kinase catalytic subunit (Homo sapiens, UniProt P78527); experiment: In vitro inhibition of DNA-dependent protein kinase(DNA-PK) from HeLa (human carcinoma) cells.; format: cell-based
[2] = target: T1, DNA-dependent protein kinase catalytic subunit; experiment: Affinity for DNA-dependent protein kinase(DNA-PK) from HeLa cell extract

T1 sequence (P78527 whole entry): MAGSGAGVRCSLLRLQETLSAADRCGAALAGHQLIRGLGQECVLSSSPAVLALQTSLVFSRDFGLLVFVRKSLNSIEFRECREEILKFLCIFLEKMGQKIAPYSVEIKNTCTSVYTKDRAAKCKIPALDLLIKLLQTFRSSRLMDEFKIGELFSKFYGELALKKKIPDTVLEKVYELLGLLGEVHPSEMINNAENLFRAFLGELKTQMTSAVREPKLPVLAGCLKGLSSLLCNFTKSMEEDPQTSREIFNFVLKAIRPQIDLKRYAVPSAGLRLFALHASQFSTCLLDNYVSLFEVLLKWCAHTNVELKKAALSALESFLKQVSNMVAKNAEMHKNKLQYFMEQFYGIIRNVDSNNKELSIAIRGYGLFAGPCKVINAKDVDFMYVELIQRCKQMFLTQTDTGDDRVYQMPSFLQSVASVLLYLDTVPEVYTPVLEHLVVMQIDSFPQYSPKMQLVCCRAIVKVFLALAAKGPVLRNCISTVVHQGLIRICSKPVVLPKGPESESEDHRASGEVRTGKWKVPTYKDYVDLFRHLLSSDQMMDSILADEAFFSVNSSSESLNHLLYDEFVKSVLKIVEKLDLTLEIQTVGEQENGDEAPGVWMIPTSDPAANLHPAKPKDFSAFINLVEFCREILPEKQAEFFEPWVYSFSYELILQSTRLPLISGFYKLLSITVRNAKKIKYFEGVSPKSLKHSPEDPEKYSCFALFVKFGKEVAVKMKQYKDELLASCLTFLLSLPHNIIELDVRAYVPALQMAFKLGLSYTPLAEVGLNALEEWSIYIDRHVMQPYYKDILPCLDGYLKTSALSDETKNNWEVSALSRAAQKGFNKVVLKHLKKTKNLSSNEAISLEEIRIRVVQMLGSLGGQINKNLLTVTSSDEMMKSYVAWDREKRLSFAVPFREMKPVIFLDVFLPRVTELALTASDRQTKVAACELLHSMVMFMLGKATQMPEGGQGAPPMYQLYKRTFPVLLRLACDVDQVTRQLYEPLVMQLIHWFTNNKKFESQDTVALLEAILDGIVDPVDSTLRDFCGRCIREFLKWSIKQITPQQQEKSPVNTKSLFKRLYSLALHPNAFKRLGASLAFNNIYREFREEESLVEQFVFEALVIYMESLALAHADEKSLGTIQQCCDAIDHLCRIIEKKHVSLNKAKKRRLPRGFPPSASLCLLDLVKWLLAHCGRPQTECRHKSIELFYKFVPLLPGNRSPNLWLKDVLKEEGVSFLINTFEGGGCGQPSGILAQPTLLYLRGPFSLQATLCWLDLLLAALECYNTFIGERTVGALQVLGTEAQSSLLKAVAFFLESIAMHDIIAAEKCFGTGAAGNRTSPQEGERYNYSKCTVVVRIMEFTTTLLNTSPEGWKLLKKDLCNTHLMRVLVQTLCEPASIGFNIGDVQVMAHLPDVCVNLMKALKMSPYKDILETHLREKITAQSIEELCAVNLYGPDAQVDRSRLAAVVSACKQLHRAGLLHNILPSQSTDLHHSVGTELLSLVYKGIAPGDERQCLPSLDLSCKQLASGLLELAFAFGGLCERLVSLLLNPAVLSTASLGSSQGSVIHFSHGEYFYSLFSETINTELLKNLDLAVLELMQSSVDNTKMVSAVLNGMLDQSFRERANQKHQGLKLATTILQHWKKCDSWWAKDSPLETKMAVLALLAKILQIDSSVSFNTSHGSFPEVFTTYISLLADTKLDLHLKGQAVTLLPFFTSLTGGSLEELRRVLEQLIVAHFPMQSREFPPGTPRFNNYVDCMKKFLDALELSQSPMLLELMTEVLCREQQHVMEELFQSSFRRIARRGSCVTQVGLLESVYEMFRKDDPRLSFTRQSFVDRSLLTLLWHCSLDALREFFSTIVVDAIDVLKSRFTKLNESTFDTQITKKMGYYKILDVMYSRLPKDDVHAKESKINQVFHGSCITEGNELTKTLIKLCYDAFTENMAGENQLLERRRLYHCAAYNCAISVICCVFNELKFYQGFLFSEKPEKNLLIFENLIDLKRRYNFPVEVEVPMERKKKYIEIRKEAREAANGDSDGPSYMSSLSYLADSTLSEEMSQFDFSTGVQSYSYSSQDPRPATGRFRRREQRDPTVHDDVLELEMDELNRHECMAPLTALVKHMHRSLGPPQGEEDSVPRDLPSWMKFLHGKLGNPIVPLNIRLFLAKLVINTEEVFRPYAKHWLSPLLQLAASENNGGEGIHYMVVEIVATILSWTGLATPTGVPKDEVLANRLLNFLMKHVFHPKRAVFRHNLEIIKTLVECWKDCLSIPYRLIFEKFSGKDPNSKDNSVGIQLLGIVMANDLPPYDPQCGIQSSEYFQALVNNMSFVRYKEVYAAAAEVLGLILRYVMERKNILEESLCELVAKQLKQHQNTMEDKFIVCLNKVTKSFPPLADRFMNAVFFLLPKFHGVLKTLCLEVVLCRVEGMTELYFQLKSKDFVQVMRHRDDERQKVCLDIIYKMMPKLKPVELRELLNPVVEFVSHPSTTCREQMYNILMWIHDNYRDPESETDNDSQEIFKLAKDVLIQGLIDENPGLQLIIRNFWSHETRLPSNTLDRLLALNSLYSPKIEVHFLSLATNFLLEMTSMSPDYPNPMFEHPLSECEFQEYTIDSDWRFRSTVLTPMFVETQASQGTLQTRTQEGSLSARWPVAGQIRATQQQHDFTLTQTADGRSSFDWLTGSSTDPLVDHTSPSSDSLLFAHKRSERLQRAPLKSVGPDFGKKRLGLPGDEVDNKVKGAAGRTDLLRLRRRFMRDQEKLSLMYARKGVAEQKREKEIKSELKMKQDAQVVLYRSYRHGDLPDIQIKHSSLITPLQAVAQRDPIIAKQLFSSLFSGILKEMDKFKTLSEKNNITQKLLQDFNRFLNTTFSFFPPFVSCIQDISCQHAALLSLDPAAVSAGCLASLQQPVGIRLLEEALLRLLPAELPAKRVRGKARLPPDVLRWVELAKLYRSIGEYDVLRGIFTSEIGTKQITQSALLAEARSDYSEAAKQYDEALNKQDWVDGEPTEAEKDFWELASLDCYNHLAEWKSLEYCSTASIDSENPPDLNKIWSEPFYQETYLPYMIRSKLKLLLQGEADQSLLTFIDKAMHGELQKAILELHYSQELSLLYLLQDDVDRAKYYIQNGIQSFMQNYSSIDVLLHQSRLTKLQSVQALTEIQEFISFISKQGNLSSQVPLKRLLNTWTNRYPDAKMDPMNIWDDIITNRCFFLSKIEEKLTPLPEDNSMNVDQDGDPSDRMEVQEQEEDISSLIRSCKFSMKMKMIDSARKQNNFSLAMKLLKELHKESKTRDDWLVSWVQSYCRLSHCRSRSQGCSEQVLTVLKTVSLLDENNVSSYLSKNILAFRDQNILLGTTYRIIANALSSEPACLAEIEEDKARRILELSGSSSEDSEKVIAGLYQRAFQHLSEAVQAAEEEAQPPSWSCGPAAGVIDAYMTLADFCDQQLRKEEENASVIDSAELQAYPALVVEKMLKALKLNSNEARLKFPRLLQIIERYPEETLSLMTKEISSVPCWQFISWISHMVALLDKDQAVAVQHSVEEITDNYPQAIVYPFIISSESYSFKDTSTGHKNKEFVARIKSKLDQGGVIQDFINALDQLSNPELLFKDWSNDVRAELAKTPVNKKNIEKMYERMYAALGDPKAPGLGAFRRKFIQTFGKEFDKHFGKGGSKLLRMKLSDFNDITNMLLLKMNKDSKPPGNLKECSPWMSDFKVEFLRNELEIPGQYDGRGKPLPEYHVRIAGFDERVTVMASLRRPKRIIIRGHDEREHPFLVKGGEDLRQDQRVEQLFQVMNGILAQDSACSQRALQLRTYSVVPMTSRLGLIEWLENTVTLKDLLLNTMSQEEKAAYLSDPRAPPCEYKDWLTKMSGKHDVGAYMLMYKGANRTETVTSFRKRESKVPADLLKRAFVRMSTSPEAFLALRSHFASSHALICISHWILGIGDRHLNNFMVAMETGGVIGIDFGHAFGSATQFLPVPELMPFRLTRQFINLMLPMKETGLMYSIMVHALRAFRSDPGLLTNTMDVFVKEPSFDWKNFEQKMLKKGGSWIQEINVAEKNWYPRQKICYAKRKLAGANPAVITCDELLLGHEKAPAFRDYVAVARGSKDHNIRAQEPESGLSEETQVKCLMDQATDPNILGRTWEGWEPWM

Row | Structure (SMILES) | IC50 [1] | Ki [2]
1 | O=c1cc(-c2cccc(-c3ccc(O)cc3)c2)sc(N2CCOCC2)c1 | 350 nM | –
2 | O=c1cc(N2CCOCC2)oc2c(-c3ccccc3)cccc12 [LY-294002] | – | 6 µM
3 | O=c1cc(N2CCOCC2)oc2c1ccc1ccccc12 | 230 nM | –
